Several values for one entry are separate records, joined by “and”; a condition that tells them apart may be missing. Equal entries are not always repeated.
Legend:
[1] = biological target: T1, human FXR-LBD (GST-FXR-LBD) (Homo sapiens, UniProt Q96RI1); assay: HTRF coactivator recruitment assay, antagonist mode (in the presence of 50 μM CDCA); format: biochemical
T1 construct: the human FXR-LBD (residues 234–472) was expressed as a GST fusion protein GST-FXR-LBD; made in house; host or cells: E. coli BL21(DE3)
T1 sequence (Q96RI1 234-472 isoform Q96RI1-2): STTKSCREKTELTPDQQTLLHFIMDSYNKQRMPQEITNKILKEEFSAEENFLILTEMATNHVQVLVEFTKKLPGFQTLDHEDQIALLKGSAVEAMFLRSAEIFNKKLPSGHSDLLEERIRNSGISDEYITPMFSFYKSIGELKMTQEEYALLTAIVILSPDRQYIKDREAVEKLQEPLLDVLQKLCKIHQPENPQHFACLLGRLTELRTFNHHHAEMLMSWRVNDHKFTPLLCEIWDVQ

[2] = test system: FXR target genes (SHP, NTCP, CYP7A1) in HepG2 cells; assay: qPCR of FXR target genes in HepG2 cells; format: cell-based, human
[3] = test system: C57BL/6N mice; assay: Hepatic triglyceride (TG enzymatic assay kit); format: in vivo; details: for Hepatic TG: individual mice
Experimental: Male C57BL/6N mice (8 wk of age) were purchased from Beijing Vital River Laboratory Inc. and acclimated to the environment for 2 wk before they were used for experiments. The environment was maintained at 22°C, in a 12-h light/dark cycle with 50%–60% relative humidity and fed standard chow diets. Because the male mice are more sensitive to metabolic disease than female mice and the estrous cycle of female mice may induce variability to the metabolic phenotypes,[50] only male mice were used in this study. Animals were randomly assigned to control or TPHP treatment groups (five mice per group). Mice were exposed to corn oil (control) purchased from Sigma-Aldrich (C8267) or TPHP (dissolved in corn oil) at 10mg/kg or 50mg/kg body weight (BW) by daily oral gavage for 35 d. The administered volume was 5mL/kg BW. The TPHP corn oil solutions for administration were prepared by dissolving the TPHP in corn oil, and the solutions were stored at −20°C and freshly prepared each week. BW was measured every other day during the dosing period. At the end of experiments, the mice were anesthetized with isoflurane, then blood was collected from the retro-orbital sinus via orbital puncture, and then the mice were euthanized by cervical dislocation. The liver was isolated, weighted, and divided into three fractions: one fraction was fixed with 4% neutral-buffered formalin for Oil Red staining; another fraction was frozen in liquid nitrogen and stored at −80°C for the BA targeted analysis, lipidomic analysis, and qPCR analysis; the remaining fraction was embedded with 3% carboxymethylcellulose (CMC) for MSI analysis. The ileum was also isolated, weighted, and stored at −80°C for the BA targeted analysis and qRT-PCR analysis. […]
The TG level in the liver was determined using a triglyceride enzymatic assay kit (Applygen). […] The total BA level in the liver was determined using a Total Bile Acid (TBA) Colorimetric Assay Kit (Elabscience). […] Both the TG and TBA results were normalized by the protein concentration determined by bicinchoninic acid (BCA) method using a BCA kit (Applygen).

[4] = test system: FXR, PXR and PPARγ target genes in liver; assay: qPCR of genes in mouse liver; format: in vivo, C57BL/6N mice
Experimental: Male C57BL/6N mice (8 wk of age) were purchased from Beijing Vital River Laboratory Inc. and acclimated to the environment for 2 wk before they were used for experiments. The environment was maintained at 22°C, in a 12-h light/dark cycle with 50%–60% relative humidity and fed standard chow diets. Because the male mice are more sensitive to metabolic disease than female mice and the estrous cycle of female mice may induce variability to the metabolic phenotypes,[50] only male mice were used in this study. Animals were randomly assigned to control or TPHP treatment groups (five mice per group). Mice were exposed to corn oil (control) purchased from Sigma-Aldrich (C8267) or TPHP (dissolved in corn oil) at 10mg/kg or 50mg/kg body weight (BW) by daily oral gavage for 35 d. The administered volume was 5mL/kg BW. The TPHP corn oil solutions for administration were prepared by dissolving the TPHP in corn oil, and the solutions were stored at −20°C and freshly prepared each week. BW was measured every other day during the dosing period. At the end of experiments, the mice were anesthetized with isoflurane, then blood was collected from the retro-orbital sinus via orbital puncture, and then the mice were euthanized by cervical dislocation. The liver was isolated, weighted, and divided into three fractions: one fraction was fixed with 4% neutral-buffered formalin for Oil Red staining; another fraction was frozen in liquid nitrogen and stored at −80°C for the BA targeted analysis, lipidomic analysis, and qPCR analysis; the remaining fraction was embedded with 3% carboxymethylcellulose (CMC) for MSI analysis. The ileum was also isolated, weighted, and stored at −80°C for the BA targeted analysis and qRT-PCR analysis. Cecal contents were collected from the cecum of mice for the 16S rRNA gene sequencing analysis. Animal study protocols were approved by the Animal Care and Use Committee of Peking University (approval number: Urban-WanY-1).
Total RNA was extracted from cells or mice tissues (liver and ileum) using the Total RNA kit (Tiangen Biotech), and concentration and quality of the RNA were determined using a SMA4000 Nanodrop spectrophotometer (Merinton). Then, the RNA was reverse transcribed into cDNA by HiScript III RT SuperMix for qPCR (Vazyme). In addition, qPCR was performed in the Mx3005P real-time PCR system (Agilent Technologies) with the ChamQ SYBR qPCR Master Mix Kit (Vazyme). Reactions were carried out for 5 min at 95°C, followed by 40 cycles of two-step PCR for 10 s at 95°C and 30 s at 60°C. The relative RNA expression levels of the target genes were normalized to GAPDH using the 2^−ΔΔCt method.

[5] = test system: PPARγ; set-up: method as in PMID 34340181; details: in vitro assays and in silico molecular docking; cited from earlier work
[6] = read-out: Relative antagonist activity (%)
[7] = 10 μM TPHP + 50 μM CDCA, replicates

## O=P(Oc1ccccc1)(Oc1ccccc1)Oc1ccccc1 [TPHP, triphenyl phosphate]
[1]; 1.95 μM compound + 50 μM CDCA, replicates, read-out: Relative antagonist activity (%)
  activity at 1.95 µM: 97.2%
[1]; 3.90 μM compound + 50 μM CDCA, replicates, read-out: Relative antagonist activity (%)
  activity at 3.9 µM: 97.3%
[1]; 31.25 μM compound + 50 μM CDCA, replicates, read-out: Relative antagonist activity (%)
  activity at 31.25 µM: 87.3%
[1]; 50 μM compound in the presence of 50 μM CDCA, standardized against positive control DY268 (50 μM = 100%)
  Relative activity, antagonist mode: 42.69%
[1]; 62.50 μM compound + 50 μM CDCA, replicates, read-out: Relative antagonist activity (%)
  activity at 62.5 µM: 76.5%
[1]; 250.00 μM compound + 50 μM CDCA, standardized to DMSO and 50 μM CDCA, replicates, read-out: Relative antagonist activity (%)
  activity at 250 µM: 58.1%
[1]; read-out: IC50, inhibition of CDCA-induced coactivator recruitment to FXR
  IC50: 70.6 µM
[1]; [6]
  activity at 0.98 µM: 99.2%
  activity at 7.8 µM: 95.9%
  activity at 125 µM: 64.3%
  activity at […]: 90.6%
[2]
  Effect on CDCA-induced expression changes of FXR target genes (SHP, NTCP, CYP7A1), in words: attenuated the CDCA-induced expression changes
[2]; [7]
  Relative mRNA expression level of CYP7A1: 1.85 fold changes and 1.10 fold changes and 1.48 fold changes
  Relative mRNA expression level of NTCP: 1.11 fold changes and 0.92 fold changes and 0.94 fold changes
  Relative mRNA expression level of SHP: 1.02 fold changes and 1.19 fold changes and 1.08 fold changes
[3]; TPHP exposure groups
  Hepatic TG concentrations vs control group (in words): significantly higher
[3]; TPHP-H: 50 mg/kg daily oral gavage 35 d
  Hepatic TG: 731.21 μmol/g prot and 811.79 μmol/g prot and 765.68 μmol/g prot
[3]; TPHP-L: 10 mg/kg daily oral gavage 35 d
  Hepatic TG: 784.11 μmol/g prot and 752.79 μmol/g prot and 725.51 μmol/g prot
[4]; TPHP-H: 50 mg/kg, 35 d
  Relative mRNA expression of Acc1 in liver: 1.30 fold changes and 1.85 fold changes and 1.75 fold changes
  Relative mRNA expression of Acly in liver: 1.31 fold changes and 1.49 fold changes and 1.68 fold changes
  Relative mRNA expression of Bsep in liver: 0.59 fold changes and 0.34 fold changes and 0.54 fold changes
  Relative mRNA expression of Cd36 in liver: 0.97 fold changes and 1.09 fold changes and 0.65 fold changes
  Relative mRNA expression of Cpt1a in liver: 0.75 fold changes and 0.89 fold changes and 1.31 fold changes
  Relative mRNA expression of Cyp2b10 in liver: 1.32 fold changes and 0.97 fold changes and 0.68 fold changes
  Relative mRNA expression of Cyp3a11 in liver: 0.93 fold changes and 0.74 fold changes and 0.82 fold changes
  Relative mRNA expression of Cyp7a1 in liver: 2.89 fold changes and 2.77 fold changes and 3.66 fold changes
  Relative mRNA expression of Cyp7b1 in liver: 1.54 fold changes and 0.80 fold changes and 0.81 fold changes
  Relative mRNA expression of Cyp8b1 in liver: 1.26 fold changes and 1.33 fold changes and 0.86 fold changes
  Relative mRNA expression of Cyp27a1 in liver: 0.93 fold changes and 1.23 fold changes and 1.03 fold changes
  Relative mRNA expression of Dgat2 in liver: 1.67 fold changes and 1.99 fold changes and 1.63 fold changes
  Relative mRNA expression of Fae in liver: 1.30 fold changes and 0.87 fold changes and 0.66 fold changes
  Relative mRNA expression of Hmgcs2 in liver: 0.85 fold changes and 0.69 fold changes and 1.21 fold changes
  Relative mRNA expression of Mdr3 in liver: 0.80 fold changes and 0.96 fold changes and 0.74 fold changes
  Relative mRNA expression of Mrp2 in liver: 0.83 fold changes and 0.55 fold changes and 0.76 fold changes
  Relative mRNA expression of Mrp3 in liver: 1.11 fold changes and 0.88 fold changes and 0.87 fold changes
  Relative mRNA expression of Mrp4 in liver: 0.96 fold changes and 0.80 fold changes and 0.67 fold changes
  Relative mRNA expression of Ntcp in liver: 1.19 fold changes and 1.58 fold changes and 1.51 fold changes
  Relative mRNA expression of Scd1 in liver: 0.43 fold changes and 0.64 fold changes and 0.58 fold changes
  Relative mRNA expression of Srebp1c in liver: 2.82 fold changes and 2.12 fold changes and 2.38 fold changes
[4]; TPHP-L: 10 mg/kg, 35 d
  Relative mRNA expression of Acc1 in liver: 1.60 fold changes and 1.11 fold changes and 0.88 fold changes
  Relative mRNA expression of Acly in liver: 1.63 fold changes and 1.57 fold changes and 1.51 fold changes
  Relative mRNA expression of Bsep in liver: 0.72 fold changes and 0.48 fold changes and 0.41 fold changes
  Relative mRNA expression of Cd36 in liver: 1.18 fold changes and 0.78 fold changes and 1.04 fold changes
  Relative mRNA expression of Cpt1a in liver: 0.92 fold changes and 1.04 fold changes and 0.99 fold changes
  Relative mRNA expression of Cyp3a11 in liver: 1.21 fold changes and 0.78 fold changes and 0.67 fold changes
  Relative mRNA expression of Cyp7b1 in liver: 0.65 fold changes and 1.07 fold changes and 0.98 fold changes
  Relative mRNA expression of Cyp8b1 in liver: 1.44 fold changes and 1.13 fold changes and 0.80 fold changes
  Relative mRNA expression of Cyp27a1 in liver: 1.02 fold changes and 1.04 fold changes and 0.92 fold changes
  Relative mRNA expression of Dgat2 in liver: 1.22 fold changes and 1.92 fold changes and 1.34 fold changes
  Relative mRNA expression of Fae in liver: 1.41 fold changes and 0.87 fold changes and 0.80 fold changes
  Relative mRNA expression of Hmgcs2 in liver: 0.83 fold changes and 1.02 fold changes and 0.93 fold changes
  Relative mRNA expression of Mdr3 in liver: 1.09 fold changes and 0.85 fold changes and 0.67 fold changes
  Relative mRNA expression of Mrp2 in liver: 0.71 fold changes and 1.09 fold changes and 0.57 fold changes
  Relative mRNA expression of Mrp3 in liver: 0.90 fold changes and 0.72 fold changes and 0.89 fold changes
  Relative mRNA expression of Mrp4 in liver: 0.86 fold changes and 0.84 fold changes and 0.91 fold changes
  Relative mRNA expression of Ntcp in liver: 1.52 fold changes and 1.66 fold changes and 1.26 fold changes
  Relative mRNA expression of Scd1 in liver: 0.40 fold changes and 0.59 fold changes and 0.35 fold changes
  Relative mRNA expression of Srebp1c in liver: 2.35 fold changes and 1.89 fold changes and 2.01 fold changes
[4]; TPHP-exposed mice
  Expression of FXR-regulated lipogenesis genes (Srebp1c, Dgat2, Acly, Acc1) in liver (in words): up-regulated
[4]; TPHP-exposure groups
  Expression of Scd1 in the liver (in words): significantly lower
[4]; after TPHP exposure
  Expression of PXR and PPARγ target genes in the liver, except Scd1 (in words): not significantly different
[4]; both TPHP-L and TPHP-H groups
  Expression of Cyp7a1 in liver, higher than in control group: approximately 2 folds
[5]
  PPARγ activity reported (in words): agonists

Reference: article PMC12010937, “Evaluation of FXR Activity in Pollutants Identified in Sewage Sludge and Subsequent in Vitro and in Vivo Characterization of Metabolic Effects of Triphenyl Phosphate” (Environmental Health Perspectives, 2025)
